Common to all, as to assay type: cell-based
Assay [1] concerns the target T1, Btk phosphorylation in Ramos cells (Homo sapiens, UniProt Q06187).
T1 construct: endogenous in cells; host or cells: Ramos cells (ATCC)
As to the kind of experiment: Pulse chase western blotting assay for irreversibility / binding property. The following applies: 100 nM for 45 mins, monitored 4, 6 and 8 h post removal. The method, then: Ramos cells were treated with Compound I-1 at 100 nM for 45 min. Cells were then re-suspended in compound free media and stimulated with 6 μg/ml IgM at 0, 4, 6 or 8 hours after compound removal. Cells were then lysed after 30 mm IgM stimulation. West blotting analysis were then performed.
Ramos cells were treated with Compounds at 100 nM for 45 min. Cells were then re-suspended in compound free media and stimulated with 6 μg/ml anti-IgM at 0, 4, 6 or 8 hours after compound removal. Cells were then lysed after 30 mm anti-IgM stimulation. Western blotting analysis was then performed.
(In general: A western blot detects proteins with antibodies after separation by electrophoresis.)

Assay [2] has as its system Stat5 phosphorylation in NK-92 cells. As to the kind of experiment: Western blotting assay for Stat5. The following applies: NK92, 1 hour, IL-2 stimulation, read-out: Stat5 inhibition. In outline: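 NK-92 cells, maintained with IL-2, were pre-treated with compound for 1 h, then stimulated with IL-2 for 15 min. Lysates were western blotted for phospho- and total Jak3 and Stat5. IC50 came from densitometry of phospho-band intensity.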

Assay [3] has as its target T2, Jak3 phosphorylation in NK-92 cells (Homo sapiens, UniProt P52333).
T2 construct: endogenous in cells; host or cells: NK-92 cells (ATCC)
T2 sequence (P52333 1-1124): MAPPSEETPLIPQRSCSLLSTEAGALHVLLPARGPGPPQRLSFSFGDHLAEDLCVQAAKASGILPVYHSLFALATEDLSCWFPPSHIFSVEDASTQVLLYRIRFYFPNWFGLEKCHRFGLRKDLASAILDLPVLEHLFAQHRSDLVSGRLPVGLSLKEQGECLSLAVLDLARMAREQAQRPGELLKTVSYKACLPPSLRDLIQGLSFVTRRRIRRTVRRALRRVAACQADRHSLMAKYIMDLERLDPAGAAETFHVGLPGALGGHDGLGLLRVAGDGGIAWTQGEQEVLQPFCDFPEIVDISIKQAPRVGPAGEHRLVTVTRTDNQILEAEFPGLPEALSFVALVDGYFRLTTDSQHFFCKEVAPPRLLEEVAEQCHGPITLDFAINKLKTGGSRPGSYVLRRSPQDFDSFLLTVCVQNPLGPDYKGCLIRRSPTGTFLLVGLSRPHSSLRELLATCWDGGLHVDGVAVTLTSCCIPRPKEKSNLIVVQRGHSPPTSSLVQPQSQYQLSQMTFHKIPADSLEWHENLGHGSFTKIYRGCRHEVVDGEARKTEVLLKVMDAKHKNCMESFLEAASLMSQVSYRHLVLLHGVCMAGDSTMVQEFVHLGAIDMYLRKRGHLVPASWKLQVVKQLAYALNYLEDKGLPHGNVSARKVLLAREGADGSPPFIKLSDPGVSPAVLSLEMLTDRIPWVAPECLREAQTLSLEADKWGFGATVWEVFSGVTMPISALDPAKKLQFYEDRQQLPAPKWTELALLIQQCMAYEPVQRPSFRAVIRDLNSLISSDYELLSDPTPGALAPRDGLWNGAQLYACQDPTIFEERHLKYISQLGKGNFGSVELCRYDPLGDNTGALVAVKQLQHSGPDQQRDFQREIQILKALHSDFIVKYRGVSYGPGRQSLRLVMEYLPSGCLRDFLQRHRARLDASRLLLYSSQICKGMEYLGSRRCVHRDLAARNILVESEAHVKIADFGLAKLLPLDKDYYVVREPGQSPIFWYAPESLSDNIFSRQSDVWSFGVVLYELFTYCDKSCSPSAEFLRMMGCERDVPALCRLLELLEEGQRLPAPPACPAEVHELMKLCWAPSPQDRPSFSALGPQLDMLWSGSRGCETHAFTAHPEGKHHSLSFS
As to the kind of experiment: Western blotting assay for Jak3. The conditions noted are these: 1 hour, IL-2 stimulation, read-out: Jak3 inhibition. The method, then: All cell lines were obtained from the American Type Culture Collection and were maintained at 37° C. with 5% CO2. Ramos cell line was maintained in media supplemented with 10% fetal bovine serum, penicillin (100 units/mL) and streptomycin (100 μg/mL). NK-92 cell line was maintained in media supplemented with 10% fetal bovine serum and 10% horse serum, penicillin (100 units/mL) and streptomycin (100 μg/mL), IL-2 10 ng/mL. Goat F(ab′)2 Anti-Human IgM-UNLB was obtained from SouthernBiotech. IL-2 was obtained from Peprotech.
NK-92 cells were treated with compounds at the dosed indicated for 1 hour in incubator, followed by the IL-2 stimulation for 15 minutes. Cells were then collected and lysed to prepare the cellular extraction. Western blots were performed on cell lysate using Phospho-Jak3, Jak3, Phospho-Stat5, Stat5 antibodies (Cell Signaling Technology). The intensity of blotting band was acquired using Image Lab (Bio-Rad) software, and the IC50 of target was generated with GraphPad Prism.

Assay [4] concerns the target T3, Btk (Tyr223) phosphorylation in Ramos cells (Homo sapiens, UniProt Q06187).
T3 construct: endogenous in cells; host or cells: Ramos cells (ATCC)
As to the kind of experiment: Btk Tyr223 phosphorylation inhibition, western blotting assay (Example 72). The procedure: Ramos cell line was obtained from the American Type Culture Collection and was maintained at 37° C. with 5% CO2, in media supplemented with 10% fetal bovine serum, penicillin (100 units/mL) and streptomycin (100 μg/mL), Goat F(ab′)2 Anti-Human IgM-UNLB was obtained from SouthernBiotech.
Ramos cells were treated with compounds at indicated doses for 45 min at room temperature, followed by stimulation of 12 μg/mL of IgM for 30 min, and then lysed. Western blots were performed on the cell lysate using Phospho-Btk (Tyr223), Phospho-Btk (Tyr551), Btk, Phospho-PLCγ2 (Tyr1217), PLCγ2, Phospho-p44/42 MAPK (Erk1/2) (Thr202/Tyr204) and p44/42 MAPK (Erk1/2) antibodies (Cell Signaling Technology). The density of blotting band was acquired using ImageJ software, and the IC50 of Btk (Tyr223) phosphorylation was fitted using a non-linear regression model by GraphPad Prism version 4.0.

Assay [5] addresses T3, Btk (Tyr223) phosphorylation in Ramos cells. Kind of assay: Western blotting assay for Btk (Example 73). The following applies: 45 min, 6 μg/mL anti-IgM, read-out: Btk Inhibition. In outline: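 Ramos cells pre-treated with compound for 45 min at room temperature, then stimulated with 6 μg/mL anti-IgM for 30 min and lysed. Phospho-Btk (Tyr223) measured by Western blot band densitometry; IC50 fitted by non-linear regression.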

The target of assay [6] is T4, free Btk protein from Ramos cells (Homo sapiens, UniProt Q06187).
T4 construct: endogenous in cells; host or cells: Ramos cells (ATCC)
T4 sequence (Q06187 whole entry): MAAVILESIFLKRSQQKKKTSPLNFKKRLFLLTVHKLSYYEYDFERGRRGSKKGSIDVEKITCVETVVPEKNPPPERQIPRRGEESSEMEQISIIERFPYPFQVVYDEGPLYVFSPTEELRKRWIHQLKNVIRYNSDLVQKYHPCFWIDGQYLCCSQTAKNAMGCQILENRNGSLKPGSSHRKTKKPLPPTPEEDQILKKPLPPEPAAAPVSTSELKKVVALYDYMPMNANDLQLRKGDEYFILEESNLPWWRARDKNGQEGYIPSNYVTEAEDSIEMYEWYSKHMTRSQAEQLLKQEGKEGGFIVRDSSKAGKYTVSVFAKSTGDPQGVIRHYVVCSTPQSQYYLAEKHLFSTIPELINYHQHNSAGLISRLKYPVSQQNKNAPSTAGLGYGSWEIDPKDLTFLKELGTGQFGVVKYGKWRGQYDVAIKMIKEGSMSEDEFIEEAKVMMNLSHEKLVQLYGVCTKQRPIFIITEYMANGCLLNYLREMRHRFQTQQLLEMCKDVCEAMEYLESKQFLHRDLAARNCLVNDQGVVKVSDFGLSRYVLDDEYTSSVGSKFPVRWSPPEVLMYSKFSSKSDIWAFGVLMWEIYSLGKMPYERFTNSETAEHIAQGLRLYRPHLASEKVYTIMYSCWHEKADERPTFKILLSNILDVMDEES
Kind of assay: Btk target site occupancy ELISA assay. The conditions noted are these: 1 h, ELISA, read-out: Btk Occupancy Assay (IC50). The method, then:
(§1) Ramos cells were treated with Compound I-1 at indicated concentrations for 1 h, followed by stimulation with 6 μg/mL of IgM for 30 mm, and then lysed. Lysates were incubated with Compound I-21 (biotin labeled) at a final concentration of 1 μM in a PBS, 0.05% Tween-20, 1% BSA solution while shaking for 1 h at room temperature. Samples were transferred to a streptavidin-coated 96-well ELISA plate and mixed while shaking for 1 h at room temperature. The Btk antibody (BD 611116, 1:1000 dilution in PBS+0.05% Tween-20+0.5% BSA) was then applied and incubated for 1 h at room temperature. After wash, goat anti-mouse-HRP (Pierce 31432, 1:1000 dilution in PBS+0.05% Tween-20+0.5% BSA) was added and incubated for 1 h at room temperature. The ELISA was developed with addition of tetramethyl benzidine (TMB) followed by Stop Solution and read at OD 450 nm.
as §1, with “Compounds” for “Compound I-1”, “anti-IgM” for “IgM”, “diluted” for “dilution”, “tetramethylbenzidine” for “tetramethyl benzidine”

“Also recorded” adds a separate entry of the source.

T3 sequence (Q06187 whole entry): as above
T1 sequence (Q06187 whole entry): as above

As for `C=CC(=O)Nc1cccc(Oc2nc(Nc3ccc(N4CCN(C)CC4)c(F)c3)ncc2OC)c1` [Compound I-2, N-(3-(2-(3-fluoro-4-(4-methylpiperazin-1-yl)phenylamino)-5-methoxypyrimidin-4-yloxy)phenyl) acrylamide], the “inhibition of BTK phosphorylation after compound removal (irreversibility)” value in assay [1] was “remains inhibited up to 8 his; also recorded: long term effect of the inhibition was observed after compounds removal up to 8 hours; also recorded: remains inhibited up to 8 hrs; also recorded: irreversibly inhibited the BTK phosphorylation; also recorded: inhibited the Btk phosphorylation in Ramos cells after 8 hours of removal”. For the same molecule, the IC50 in assay [2] was 200 to 400 nM; in assay [3] it was 200 to 400 nM; in assay [4] (Btk Tyr223 phosphorylation, 45 min, 12 μg/mL IgM, read-out: BTK Inhibition) it was below 10 nM; in assay [4] (treated 45 mins, read-out: inhibition IC50 of the phosphorylation of BTK protein), 5 nM; in assay [5] it was at most 10 nM. The “reduction of the Btk Tyr223 phosphorylation in Ramos cells” value in assay [4] (western blot) is listed as “reduction of the Btk Tyr223 phosphorylation”.

Consider `C=CC(=O)Nc1cccc(Oc2nc(Nc3ccc(N4CCN(CCOC)CC4)cc3)ncc2OC)c1` [Compound I-25a, N-(3-(5-methoxy-2-(4-(4-(2-methoxyethyl)piperazin-1-yl)phenylamino)pyrimidin-4-yloxy)phenyl)acrylamide], for which the IC50 in assay [2] was at least 400 nM; in assay [3] it was at least 400 nM; in assay [6], at most 10 nM; in assay [5], at most 10 nM.
